Measurements taken from US6355410B1, “Method of reducing cell proliferation by inhibiting the Na+/H+ exchanger and inducing apoptosis” (priority 1998, dated 2002).

Key:
NHE-1 = NHE-1 (Homo sapiens, UniProt P19634); conditions: literature reference 19; cited from earlier work
KG-1a cells [1] = assay: Intracellular pH of KG-1a cells incubated with HMA; assay type: cell-based, human; conditions: 10^-4M HMA, 5h, n=4, without HMA 6.9±0.08 after 5h
Experimental: (§1) Leukaemic cell lines (KG-1a and CEM) were incubated for varying periods of time with 10^−4M HMA and pHi and apoptosis measured. For both cell lines, in the absence of HMA, pHi ranged from 7.43±0.1 at time zero to 6.9±0.08 after 5h of incubation. However, after 5h with HMA, the pHi had decreased to 5.6±0.07 (n=4) for KG-1a and 6.1±0.06 (n=4) for CEM cells. In the absence of HMA, the percentage of KG-1a and CEM cells undergoing apoptosis, measured by annexin-V, ranged from 2% to 9% for the duration of the experiment, whereas by 5h in the presence of HMA, the percentage of KG-1a or CEM cells undergoing apoptosis ranged from 70-80%. […]
(§2) Measurement of pHi for hemopoietic cells has been described in detail elsewhere (8). Briefly, intracellular pH was measured by both flow cytometry and FRIM by incubating cells with carboxy SemiNaphthoRhodaFluor-1 acetoxymethyl ester, acetate (carboxy SNARF-1 AM, Molecular Probes, Eugene, Oreg.) for 15 min at room temperature. […] Flow cytometric results were analyzed using WinList Software (Verity Software House Inc. Topsham, ME) to obtain fluorescence ratio measurements. For both flow cytometry and FRIM analysis, the calibration curves were obtained and sample pHi values determined from the fluorescence ratio values using Table Curve software (SPSS Inc., Chicago, Ill.). […]

KG-1a cells [2] = assay: Apoptosis (annexin-V) of KG-1a cells incubated with HMA; assay type: cell-based, human; conditions: 10^-4M HMA, 5h, without HMA 2% to 9%
Experimental: (§3) Leukaemic cell lines (KG-1a and CEM) were incubated for varying periods of time with 10^−4M HMA and pHi and apoptosis measured. For both cell lines, in the absence of HMA, pHi ranged from 7.43±0.1 at time zero to 6.9±0.08 after 5h of incubation. However, after 5h with HMA, the pHi had decreased to 5.6±0.07 (n=4) for KG-1a and 6.1±0.06 (n=4) for CEM cells. In the absence of HMA, the percentage of KG-1a and CEM cells undergoing apoptosis, measured by annexin-V, ranged from 2% to 9% for the duration of the experiment, whereas by 5h in the presence of HMA, the percentage of KG-1a or CEM cells undergoing apoptosis ranged from 70-80%.
(§4) The following human leukemic cell lines were originally obtained from ATCC (Rockville, Md.): KG-1a (BM acute myelogenous leukemia), Jurkat (acute T-cell leukemia), Molt-4 (PB acute lymphoblastic leukemia), CEM (PB acute lymphoblastic leukemia), K562 (chronic myeloid leukemia), THP-1 (acute monocytic leukemia), Nalm-6 (B-cell leukemia). All cell lines were cultured in Dulbecco's Modified Eagles Medium (DMEM) containing 10% heat-inactivated fetal bovine serum (FBS). Only cells in log phase growth were used.
(§5) Two methods were used to determine if reduction in pHi induced apoptosis. […]

[3] = test system: normal peripheral blood cells; assay: Intracellular pH (flow cytometry and FRIM) of normal peripheral blood cells incubated with HMA; assay type: cell-based, human
Experimental: Normal peripheral blood cells were incubated in the absence or presence of the NHE-1 inhibitor, 5-(N,N-hexamethylene)-amiloride (HMA), at concentrations ranging from 10^−7M to 10^−4M for up to 5h. Cells were then aliquoted so that pHi and apoptotic measurements could be performed. In these experiments, pHi was measured using both flow cytometry and fluorescence ratio imaging microscopy (FRIM). […] The proportion of necrotic cells measured by propidium iodide (PI) remained constant at about 5% in the absence or presence of HMA for each time point measured. […] It is interesting to note that both methods measured about 25% apoptotic cells when pHi was reduced to about 6.8. […]
as §2

CEM cells [4] = assay: Apoptosis (annexin-V) of CEM cells incubated with HMA; assay type: cell-based, human; conditions: 10^-4M HMA, 5h, without HMA 2% to 9%
Experimental: as §3, §4, §5

KG-1a cells [5] = assay: RNA degradation in KG-1a cells by denaturing RNA gel electrophoresis; assay type: cell-based, human; conditions: 10^-4M HMA
[6] = test system: normal peripheral blood cells; assay type: cell-based, human
Experimental: Normal peripheral blood cells were incubated in the absence or presence of the NHE-1 inhibitor, 5-(N,N-hexamethylene)-amiloride (HMA), at concentrations ranging from 10^−7M to 10^−4M for up to 5h. Cells were then aliquoted so that pHi and apoptotic measurements could be performed. In these experiments, pHi was measured using both flow cytometry and fluorescence ratio imaging microscopy (FRIM). […] The proportion of necrotic cells measured by propidium iodide (PI) remained constant at about 5% in the absence or presence of HMA for each time point measured. […] It is interesting to note that both methods measured about 25% apoptotic cells when pHi was reduced to about 6.8. As shown in the next section, a pHi of 6.8 appears to be a critical value below which increased apoptosis occurs.
Two methods were used to determine if reduction in pHi induced apoptosis. The first used annexin-V conjugated to fluorescein isothiocyanate (FITC) (Pharmingen, San Diego, Calif.) to determine the translocation of phosphatidylserine from the inside to the outside of the plasma membrane. Cells were counter-stained with propidium iodide (PI) to determine the proportion of necrotic cells. Cell staining was performed according to the manufacturer's instructions. The second technique used terminal deoxynucleotidyl transferase (TdT)-mediated dUTP nick-end labeling (TUNEL) of fragmented DNA. […]

[7] = test system: primary ALL patient leukaemic cells; assay: Apoptosis (annexin-V and TUNEL) of fresh ALL patient leukaemic cells incubated with HMA; assay type: cell-based, human
Experimental: (§6) Intracellular pH was measured by both FRIM and flow cytometry, while apoptosis was measured by annexin-V and TUNEL. […] For this reason, pHi values for 1h, 3h and 5h were set at 5.0. After 1h, the proportion of cells incubated with HMA undergoing apoptosis was about 85% using annexin-V and about 60% using the TUNEL technique.
Two methods were used to determine if reduction in pHi induced apoptosis. The first used annexin-V conjugated to fluorescein isothiocyanate (FITC) (Pharmingen, San Diego, Calif.) to determine the translocation of phosphatidylserine from the inside to the outside of the plasma membrane. Cells were counter-stained with propidium iodide (PI) to determine the proportion of necrotic cells. Cell staining was performed according to the manufacturer's instructions. The second technique used terminal deoxynucleotidyl transferase (TdT)-mediated dUTP nick-end labeling (TUNEL) of fragmented DNA. Fluorochrome (FITC)-labelling of DNA (Boehringer Mannhein, Germany) was performed according to the manufacturer's instructions and measurements performed by flow cytometry.
The amiloride analogue, HMA (Sigma Chemicals, St. Louis, Mo.) was dissolved in dimethylsulphoxide (DMSO) and a stock solution (10^−3M) prepared in DMEM. Cells were incubated at concentrations ranging from 10^−7M to 10^−4M for varying periods of time specified in the results. After incubation, cells were washed and aliquoted according to the type of measurement (pHi or apoptosis) performed. Controls included cells not treated with HMA.

[8] = test system: primary ALL patient leukaemic cells; assay: Intracellular pH (FRIM and flow cytometry) of fresh ALL patient leukaemic cells incubated with HMA; assay type: cell-based, human; conditions: 10^-4M HMA, 1h, 3h and 5h, values set at 5.0
Experimental: as §6
as §2, with “temperature. SNARF is excited at 488 nm and emits at 580 nm and 640 nm. The ratio of the emission wavelengths 640/580 was used (8) to estimate the pHi from a calibration curve. The calibration curve was performed using the nigericin clamp technique (21).” for “temperature.”

CEM cells [9] = assay: Intracellular pH of CEM cells incubated with HMA; assay type: cell-based, human; conditions: 10^-4M HMA, 5h, n=4, without HMA 6.9±0.08 after 5h
Experimental: as §1, §2

[10] = test system: normal peripheral blood (PB) cells; assay: Proportion of cells in S-phase (propidium iodide) of peripheral blood incubated with phorbol ester; assay type: cell-based, human; conditions: untreated PB 1.19%±0.34%
Experimental: (§7) The pHi and the percentage of cells in S-phase of the cell cycle were simultaneously determined in aliquots of the same sample, using propidium iodide labeling. Prior to analysis, peripheral blood was also incubated with phorbol ester to activate the NHE-1. […] Furthermore, there was a direct correlation between pHi and proportion of cells in S-phase in both normal and neoplastic haemopoietic cells of various origins (FIG. 4). Thus, intracellular alkalinisation is associated with an increased proliferation and possibly transformation of haemopoietic cells. We hypothesized that unregulated proliferation of leukaemic cells might, at least in part, be due to suppression of normal apoptotic mechanisms. In this case, inhibitors of the NHE-1 would be expected to induce apoptosis in leukaemic cells, and we therefore examined the effects of NHE-1 inhibitors upon such cells.
Normal PB cells were incubated for 5 min with 10^−6 M phorbol-12-myristate-13-acetate (PMA, Sigma Chemical Company, St. Louis, Mo.) to non-specifically activate the NHE-1. […]
The proportion of cells in S-phase of the cell cycle was determined using the propidium iodide technique using the CycleTEST Plus DNA reagent kit (Becton-Dickinson, San Jose, Calif.). Data were acquired by flow cytometry, and analyzed using the Modfit LT software program (Verity Software House Inc).

[11] = test system: normal peripheral blood (PB) cells; assay: Intracellular pH (SNARF, flow cytometry) of peripheral blood incubated with phorbol ester; assay type: cell-based, human; conditions: PB incubated with phorbol ester (10^-6 M PMA, 5 min); unstimulated PB 7.03±0.04
Experimental: as §7, with “In this case, inhibitors of the NHE-1 would be expected to induce apoptosis in leukaemic cells, and we therefore examined the effects of NHE-1 inhibitors upon such cells.” left out
Measurement of pHi for hemopoietic cells has been described in detail elsewhere (8). Briefly, intracellular pH was measured by both flow cytometry and FRIM by incubating cells with carboxy SemiNaphthoRhodaFluor-1 acetoxymethyl ester, acetate (carboxy SNARF-1 AM, Molecular Probes, Eugene, Oreg.) for 15 min at room temperature. […] Flow cytometric results were analyzed using WinList Software (Verity Software House Inc. Topsham, ME) to obtain fluorescence ratio measurements. For both flow cytometry and FRIM analysis, the calibration curves were obtained and sample pHi values determined from the fluorescence ratio values using Table Curve software (SPSS Inc., Chicago, Ill.).

[12] = ALL patient cells, 10^-4M HMA, 1h

Sequence of NHE-1 (P19634 whole entry, species assumed): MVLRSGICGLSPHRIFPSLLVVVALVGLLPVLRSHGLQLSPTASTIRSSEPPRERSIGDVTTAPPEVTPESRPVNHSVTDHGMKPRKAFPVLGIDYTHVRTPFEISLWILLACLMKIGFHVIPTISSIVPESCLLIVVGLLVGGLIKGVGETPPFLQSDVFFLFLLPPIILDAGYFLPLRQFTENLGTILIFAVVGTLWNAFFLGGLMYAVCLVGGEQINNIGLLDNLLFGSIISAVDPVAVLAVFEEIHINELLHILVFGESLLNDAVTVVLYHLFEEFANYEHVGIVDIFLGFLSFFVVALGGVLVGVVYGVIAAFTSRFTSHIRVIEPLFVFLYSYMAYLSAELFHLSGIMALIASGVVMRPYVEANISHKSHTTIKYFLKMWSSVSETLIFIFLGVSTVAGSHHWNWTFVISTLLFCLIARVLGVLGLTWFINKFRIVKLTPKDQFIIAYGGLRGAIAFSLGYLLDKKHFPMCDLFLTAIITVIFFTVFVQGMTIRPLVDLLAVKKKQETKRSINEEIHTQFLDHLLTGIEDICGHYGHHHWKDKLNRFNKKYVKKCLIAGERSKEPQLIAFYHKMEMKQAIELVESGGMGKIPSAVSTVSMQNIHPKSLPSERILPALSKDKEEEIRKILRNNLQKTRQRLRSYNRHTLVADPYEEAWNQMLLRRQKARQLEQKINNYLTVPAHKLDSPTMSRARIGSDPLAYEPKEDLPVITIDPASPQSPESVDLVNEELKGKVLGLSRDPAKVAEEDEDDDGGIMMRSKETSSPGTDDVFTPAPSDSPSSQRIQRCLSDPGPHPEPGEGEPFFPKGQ

Compound	potency and specificity of NHE-1 inhibition relative to amiloride (NHE-1)	pHi (KG-1a cells [1])	percentage of cells undergoing apoptosis, annexin-V (KG-1a cells [2])	inhibition (decrease of pHi), time and concentration dependence ([3]; HMA 10^-7M to 10^-4M, up to 5h, flow cytometry and FRIM)	pHi reduced to ([3]; normal PB incubated with HMA, pHi at which about 25% apoptotic cells were measured)	percentage of cells undergoing apoptosis, annexin-V (CEM cells [4])	onset of RNA degradation after addition (KG-1a cells [5])	time to total RNA degradation (KG-1a cells [5])	proportion of apoptotic cells, time and concentration dependence ([6]; HMA 10^-7M to 10^-4M, up to 5h, annexin-V and TUNEL)	apoptotic cells ([6]; normal PB with HMA, both methods (annexin-V, TUNEL), when pHi reduced to about 6.8)	proportion of cells undergoing apoptosis, TUNEL [7, 12]	proportion of cells undergoing apoptosis, annexin-V [7, 12]	apoptotic cells, both methods (annexin-V and TUNEL) ([7]; ALL patient cells, 10^-4M HMA, 5h)	sensitivity of primary ALL cells versus normal PB ([7]; differential effect of HMA between normal and acute lymphoblastic leukaemic cells)	time to induction of apoptosis ([7]; primary leukemic cells)	cells either dead or undergoing apoptosis ([7]; primary leukemic cells, between 3 and 5 h of incubation)	pHi measured by flow cytometry [8]	pHi (CEM cells [9])	proportion of cells in S-phase [10]	pHi [11]
CCN(c1nc(N)c(C(=O)N=C(N)N)nc1Cl)C(C)C [EIPA, 5-(N-ethyl-N-isopropyl) amiloride]	greater potency and specificity of NHE-1 inhibition than amiloride itself																			
NC(N)=NC(=O)c1nc(Cl)c(N2CCCCCC2)nc1N [HMA, 5-(N,N-hexamethylene)-amiloride]	greater potency and specificity of NHE-1 inhibition than amiloride itself	5.6±0.07	70-80%	greatest inhibition occurred at 5h, using the highest HMA concentration	about 6.8	70-80%	began to degrade between 30 min and 1h	≤ 3 h	greatest proportion of apoptotic cells was found after 5h incubation with 10^−4M HMA	about 25%	about 60%	about 85%	over 90%	greater sensitivity to HMA than normal PB	≤ 1 h	more than 90%	too low to calibrate	6.1±0.06		
CCCCCCCCCCCCCC(=O)O[C@@H]1[C@@H](C)[C@@]2(O)[C@@H](C=C(CO)C[C@]3(O)C(=O)C(C)=C[C@@H]23)[C@@H]2C(C)(C)[C@]12OC(C)=O [phorbol ester, phorbol-12-myristate-13-acetate]																			8.7%±0.17%	7.32±0.043
